Experimental data taken from PubChem BioAssay AID256 (DTP/NCI, 2004).
Where “and” joins values, the source holds several entries; their conditions need not be identical. Identical values can stand only once. Inconclusive results and toxic doses are left out. Rule for the calls: active = survival T/C of 150% or more; inactive = T/C below 125% in these data. Residues, ends and D or L forms follow the SMILES beside them.

System: CD2F1 mice, L1210 leukemia ip, survival T/C
Assay: NCI In Vivo Anticancer Drug Screen. Data for tumor model L1210 Leukemia (intraperitoneal) in CD2F1 (CDF1) mice
Conditions: higher = longer survival
In short: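 Read-out first: treated-group measurement over vehicle-control measurement, expressed as a ratio. Animals bore a transplanted tumor line and were dosed with compound or vehicle.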

[1] = endpoint: mean survival time, dose: 100.0 mg/kg/injection, schedule: Q04DX002 (ip), vehicle: saline
[2] = endpoint: mean survival time, dose: 200.0 mg/kg/injection, schedule: Q04DX002 (ip), vehicle: saline
[3] = endpoint: mean survival time, dose: 100.0 mg/kg/injection, schedule: Q04DX003 (ip), vehicle: saline with Tween-80
[4] = endpoint: mean survival time, dose: 200.0 mg/kg/injection, schedule: Q04DX003 (ip), vehicle: saline with Tween-80
[5] = endpoint: mean survival time, dose: 400.0 mg/kg/injection, schedule: Q04DX003 (ip), vehicle: saline with Tween-80
[6] = endpoint: mean survival time, dose: 25.0 mg/kg/injection, schedule: Q01DX009 (ip), vehicle: Klucel (hydroxypropylcellulose) (HPC)
[7] = endpoint: mean survival time, dose: 50.0 mg/kg/injection, schedule: Q01DX009 (ip), vehicle: Klucel (hydroxypropylcellulose) (HPC)
[8] = endpoint: mean survival time, dose: 100.0 mg/kg/injection, schedule: Q01DX009 (ip), vehicle: Klucel (hydroxypropylcellulose) (HPC)
[9] = endpoint: mean survival time, dose: 75.0 mg/kg/injection, schedule: Q01DX001 (ip), vehicle: saline
[10] = endpoint: mean survival time, dose: 150.0 mg/kg/injection, schedule: Q01DX001 (ip), vehicle: saline
[11] = endpoint: mean survival time, dose: 50.0 mg/kg/injection, schedule: Q01DX009 (ip), vehicle: saline with Tween-80
[12] = endpoint: mean survival time, dose: 100.0 mg/kg/injection, schedule: Q01DX009 (ip), vehicle: saline with Tween-80
[13] = endpoint: mean survival time, dose: 100.0 mg/kg/injection, schedule: Q01DX001 (ip), vehicle: Klucel (hydroxypropylcellulose) (HPC)
[14] = endpoint: mean survival time, dose: 200.0 mg/kg/injection, schedule: Q01DX001 (ip), vehicle: Klucel (hydroxypropylcellulose) (HPC)
[15] = endpoint: mean survival time, dose: 100.0 mg/kg/injection, schedule: Q01DX001 (ip), vehicle: saline with Tween-80
[16] = endpoint: mean survival time, dose: 200.0 mg/kg/injection, schedule: Q01DX001 (ip), vehicle: saline with Tween-80
[17] = endpoint: mean survival time, dose: 400.0 mg/kg/injection, schedule: Q01DX001 (ip), vehicle: saline with Tween-80
[18] = endpoint: mean survival time, dose: 50.0 mg/kg/injection, schedule: Q04DX002 (ip), vehicle: saline with Tween-80
[19] = endpoint: mean survival time, dose: 100.0 mg/kg/injection, schedule: Q04DX002 (ip), vehicle: saline with Tween-80
[20] = endpoint: mean survival time, dose: 400.0 mg/kg/injection, schedule: Q04DX002 (ip), vehicle: saline with Tween-80
[21] = endpoint: mean survival time, dose: 200.0 mg/kg/injection, schedule: Q04DX002 (ip), vehicle: saline with Tween-80
[22] = endpoint: mean survival time, dose: 100.0 mg/kg/injection, schedule: Q01DX001 (ip), vehicle: saline
[23] = endpoint: mean survival time, dose: 200.0 mg/kg/injection, schedule: Q01DX001 (ip), vehicle: saline
[24] = endpoint: mean survival time, dose: 400.0 mg/kg/injection, schedule: Q01DX001 (ip), vehicle: saline

Measured: T/C

O=C(O)CCC(CCC(=O)O)(C(=O)O)C(=O)O
inactive: endpoint: median survival time, dose: 75.0 mg/kg/injection, schedule: Q01DX009 (ip), vehicle: saline 98 % of control | endpoint: median survival time, dose: 150.0 mg/kg/injection, schedule: Q01DX009 (ip), vehicle: saline 96 % of control | endpoint: median survival time, dose: 300.0 mg/kg/injection, schedule: Q01DX009 (ip), vehicle: saline 96 % of control

CC1=NCCN1CCN
inactive: [1] 91 % of control | [2] 109 % of control | endpoint: mean survival time, dose: 400.0 mg/kg/injection, schedule: Q04DX002 (ip), vehicle: saline 113 % of control

Cc1cc2nc(NN)[nH]c2cc1C
inactive: [3] 98 % of control | [4] 98 % of control | [5] 114 % of control

Nc1nc(N)c2nc(-c3ccc(Cl)c(Cl)c3)c(N)nc2n1
inactive: endpoint: mean survival time, dose: 12.5 mg/kg/injection, schedule: Q01DX009 (ip), vehicle: water 97 % of control | endpoint: mean survival time, dose: 25.0 mg/kg/injection, schedule: Q01DX009 (ip), vehicle: water 97 % of control | endpoint: mean survival time, dose: 50.0 mg/kg/injection, schedule: Q01DX009 (ip), vehicle: water 108 % of control | endpoint: mean survival time, dose: 100.0 mg/kg/injection, schedule: Q01DX009 (ip), vehicle: water 93 % of control

Cc1cc(C)c2ccc(Cl)nc2n1
inactive: endpoint: mean survival time, dose: 75.0 mg/kg/injection, schedule: Q01DX001 (ip), vehicle: other 100 % of control

CC(=O)CC(C)(C)C1CCCCC1
inactive: [6] 93 % of control | [7] 93 % of control | [8] 96 % of control | endpoint: mean survival time, dose: 200.0 mg/kg/injection, schedule: Q01DX009 (ip), vehicle: Klucel (hydroxypropylcellulose) (HPC) 93 % of control

CC(Cc1ccccc1)NNC(C)Cc1ccccc1 (centres undefined)
inactive: [9] 98 % of control | [10] 102 % of control | endpoint: mean survival time, dose: 300.0 mg/kg/injection, schedule: Q01DX001 (ip), vehicle: saline 97 % of control

CCN(CC)C(=O)c1cc[n+](Cc2ccc(Cl)c(Cl)c2)cc1
inactive: [11] 102 % of control | [12] 105 % of control | [3] 100 % of control | [4] 102 % of control

C=CS(=O)(=O)CCc1ccccc1
inactive: endpoint: mean survival time, dose: 50.0 mg/kg/injection, schedule: Q01DX001 (ip), vehicle: Klucel (hydroxypropylcellulose) (HPC) 101 % of control | [13] 111 % of control | [14] 108 % of control

CCCCS(=O)(=O)c1ccc(Cl)cc1
inactive: [3] 96 % of control | [4] 100 % of control | [5] 105 % of control

O=[N+]([O-])c1cc(I)c(I)c(I)c1
inactive: [3] 98 % of control | [4] 104 % of control | [5] 98 % of control

C/C=C1/C=CC2c3[nH]c4ccccc4c3CCN2C1 (centres undefined)
inactive: endpoint: mean survival time, dose: 20.0 mg/kg/injection, schedule: Q01DX001 (ip), vehicle: saline with Tween-80 93 % of control | endpoint: mean survival time, dose: 40.0 mg/kg/injection, schedule: Q01DX001 (ip), vehicle: saline with Tween-80 98 % of control | endpoint: mean survival time, dose: 80.0 mg/kg/injection, schedule: Q01DX001 (ip), vehicle: saline with Tween-80 90 % of control

CCC(=O)[O][Bi]([c]1ccccc1)[c]1ccccc1
inactive: endpoint: median survival time, dose: 3.12 mg/kg/injection, schedule: Q01DX009 (ip), vehicle: Klucel (hydroxypropylcellulose) (HPC) 108 % of control | endpoint: median survival time, dose: 6.25 mg/kg/injection, schedule: Q01DX009 (ip), vehicle: Klucel (hydroxypropylcellulose) (HPC) 108 % of control | endpoint: median survival time, dose: 12.5 mg/kg/injection, schedule: Q01DX009 (ip), vehicle: Klucel (hydroxypropylcellulose) (HPC) 103 % of control | endpoint: median survival time, dose: 25.0 mg/kg/injection, schedule: Q01DX009 (ip), vehicle: Klucel (hydroxypropylcellulose) (HPC) 112 % of control and 111 % of control

COc1ccc2[nH]c(=O)oc(=O)c2c1
inactive: endpoint: mean survival time, dose: 12.5 mg/kg/injection, schedule: Q01DX009 (ip), vehicle: Klucel (hydroxypropylcellulose) (HPC) 96 % of control | [6] 102 % of control | [7] 108 % of control | [15] 96 % of control | [8] 106 % of control | [12] 104 % of control | [16] 107 % of control | [17] 105 % of control

O=C1/C(=N/Nc2ccccc2)c2cccc3cccc1c23
inactive: [15] 97 % of control | [16] 100 % of control | [17] 106 % of control

CC(C)C1OCC(C)(C)C(C)O1 (centres undefined)
inactive: endpoint: mean survival time, dose: 50.0 mg/kg/injection, schedule: Q04DX002 (ip), vehicle: saline 96 % of control | [1] 96 % of control | [2] 93 % of control

NC(=O)c1ccc[n+](Cc2ccccc2)c1
inactive: [9] 98 % of control | [10] 96 % of control

O=C1CCC(c2ccccc2)=NN1c1ccccc1
inactive: endpoint: mean survival time, dose: 100.0 mg/kg/injection, schedule: Q04DX003 (ip), vehicle: Klucel (hydroxypropylcellulose) (HPC) 98 % of control | endpoint: mean survival time, dose: 200.0 mg/kg/injection, schedule: Q04DX003 (ip), vehicle: Klucel (hydroxypropylcellulose) (HPC) 96 % of control | endpoint: mean survival time, dose: 400.0 mg/kg/injection, schedule: Q04DX003 (ip), vehicle: Klucel (hydroxypropylcellulose) (HPC) 96 % of control

C[CH2][Sn]1([CH2]C)[O]CC2OC(n3cc(C)c(=O)[nH]c3=O)CC2[O]1 (centres undefined)
inactive: endpoint: mean survival time, dose: 0.78 mg/kg/injection, schedule: Q01DX005 (ip), vehicle: other 94 % of control | endpoint: mean survival time, dose: 1.56 mg/kg/injection, schedule: Q01DX005 (ip), vehicle: other 104 % of control | endpoint: mean survival time, dose: 3.13 mg/kg/injection, schedule: Q01DX005 (ip), vehicle: other 110 % of control | endpoint: mean survival time, dose: 6.25 mg/kg/injection, schedule: Q01DX005 (ip), vehicle: other 107 % of control

COc1ccc(NC(=O)Oc2ccc(SC)c(C)c2)cc1
inactive: endpoint: mean survival time, dose: 25.0 mg/kg/injection, schedule: Q01DX009 (ip), vehicle: saline with Tween-80 101 % of control | endpoint: mean survival time, dose: 25.0 mg/kg/injection, schedule: Q04DX002 (ip), vehicle: saline with Tween-80 100 % of control | [11] 95 % of control | [18] 107 % of control | [12] 89 % of control | [19] 91 % of control and 104 % of control | [20] 91 % of control

O=c1ccn(CC(O)c2cc3ccccc3[nH]2)c(=O)[nH]1 (centres undefined)
inactive: [19] 112 % of control | [21] 112 % of control | [20] 108 % of control

Cc1ccc(C(=O)Nc2cccc(-n3cnc4c(=O)[nH]c(N)nc43)c2)cc1S(=O)(=O)F
inactive: [18] 90 % of control | [19] 101 % of control | [21] 86 % of control

O=C(Nc1cc(Cl)c(I)c(Cl)c1)C(F)(F)F
inactive: [22] 98 % of control | [23] 101 % of control | [24] 98 % of control

O=C(COc1ccc(Cl)cc1Cl)Nc1ccccc1F
inactive: [3] 100 % of control | [4] 94 % of control | [5] 94 % of control

CO/N=C(/c1ccccc1)c1cccc[n+]1C
inactive: endpoint: mean survival time, dose: 9.4 mg/kg/injection, schedule: Q01DX009 (ip), vehicle: saline 107 % of control | endpoint: mean survival time, dose: 18.8 mg/kg/injection, schedule: Q01DX009 (ip), vehicle: saline 97 % of control | endpoint: mean survival time, dose: 37.5 mg/kg/injection, schedule: Q01DX009 (ip), vehicle: saline 98 % of control | [9] 97 % of control

N=Cc1ccccc1
inactive: [13] 99 % of control | [14] 96 % of control | endpoint: mean survival time, dose: 400.0 mg/kg/injection, schedule: Q01DX001 (ip), vehicle: Klucel (hydroxypropylcellulose) (HPC) 105 % of control

CCOC(=O)C(C(=O)OCC)C(C)C
inactive: [22] 97 % of control | [23] 97 % of control | [24] 110 % of control

CCCCCCCCC(C(=O)c1ccccc1)=C(C(F)(F)F)C(F)(F)F
inactive: [12] 91 % of control

NC(N)=NCCCC(N)C(=O)NC(CCC(=O)O)C(=O)O (stereo not drawn) (H-Arg-Glu-OH; configuration not given here)
inactive: endpoint: mean survival time, dose: 25.0 mg/kg/injection, schedule: Q01DX009 (ip), vehicle: saline 91 % of control | endpoint: mean survival time, dose: 50.0 mg/kg/injection, schedule: Q01DX009 (ip), vehicle: saline 94 % of control | endpoint: mean survival time, dose: 100.0 mg/kg/injection, schedule: Q01DX009 (ip), vehicle: saline 89 % of control | endpoint: mean survival time, dose: 200.0 mg/kg/injection, schedule: Q01DX009 (ip), vehicle: saline 89 % of control | endpoint: mean survival time, dose: 400.0 mg/kg/injection, schedule: Q01DX009 (ip), vehicle: saline 93 % of control
